Results on ten compounds are retold here after ChEMBL document CHEMBL4011606, “Synthesis and antiplasmodial activity of novel indoleamide derivatives bearing sulfonamide and triazole pharmacophores” (Eur J Med Chem, 2017).

Data set [1] deals with Plasmodium falciparum. Kind of data set: Antiplasmodial activity against chloroquine-sensitive Plasmodium falciparum 3D7 infected in human erythrocytes measured after 72 hrs by SYBR green 1 dye based fluorescence assay. As to conditions: 3D7, 72 h. Type of data set: functional, cell-based.
In data set [2] the test system is Plasmodium falciparum. Kind of data set: Antiplasmodial activity against chloroquine-resistant Plasmodium falciparum K1 infected in human erythrocytes measured after 72 hrs by SYBR green 1 dye based fluorescence assay. Type of data set: functional, cell-based. As to conditions: K1, 72 h.
Data set [3] can be described thus: Cytotoxicity against African green monkey Vero cells measured after 3 days by resazurin dye based fluorescence assay. The note with it: chlorocebus sabaeus. Type of data set: cell-based. On the technique in general: The colour change of resazurin is a common sign of viable cells or microbes.
Data set [4] is described as follows: Selectivity index, ratio of CC50 for African green monkey Vero cells to IC50 for chloroquine-sensitive Plasmodium falciparum 3D7. Type of data set: toxicity. As to conditions: read-out: Ratio CC50/IC50.
The nature of data set [5]: Selectivity index, ratio of CC50 for African green monkey Vero cells to IC50 for chloroquine-resistant Plasmodium falciparum K1. Type of data set: toxicity. As to conditions: read-out: Ratio CC50/IC50.
A short description of data set [6]: Resistance index, ratio of IC50 for chloroquine-resistant Plasmodium falciparum K1 to IC50 for chloroquine-sensitive Plasmodium falciparum 3D7. Type of data set: functional.

One may read the IC50 as the concentration needed to halve the response being measured. Broadly, the CC50 is the concentration that lowers cell viability or growth by half. `CC(C)(C)c1ccc(S(=O)(=O)n2cc(CCCC(=O)NC3C4CC5CC(C4)CC3C5)c3ccccc32)cc1` (stereo not given): the half-inhibitory concentration (IC50) in the data set with Plasmodium falciparum [1] was 3.35 µM; with Plasmodium falciparum [2] it was 4.26 µM. In data set [3], this compound yielded a 50% cytotoxic concentration (CC50) at 72 h of over 250 µM. Besides, the selectivity ratio in data set [4] was over 74; in data set [5], over 58. In addition, the Ratio IC50 in data set [6] amounted to 1.27.
With `CC(C)(C)c1ccc(S(=O)(=O)n2cc(CCCC(=O)NC3CCCCCC3)c3ccccc32)cc1`, the IC50 in the data set on Plasmodium falciparum [1] worked out at 2 µM; in the data set on Plasmodium falciparum [2], 1.6 µM. Further, in data set [3], the CC50 at 72 h is over 250 µM. Further, the selectivity ratio in data set [4] is over 125; in data set [5], over 156. Also, the Ratio IC50 in data set [6] is 0.8.
`O=C(CCCc1cn(Cc2ccccc2)c2ccccc12)NC12CC3CC(CC(C3)C1)C2`: the IC50 in the data set on Plasmodium falciparum [1] was determined as 3.6 µM; in the data set on Plasmodium falciparum [2] it was 4.2 µM. Also, the CC50 at 72 h in data set [3] is over 250 µM. For the same compound, the selectivity ratio is over 69 in data set [4] and over 59 in data set [5]. For the same compound, the Ratio IC50 in data set [6] is 1.16.
With `O=C(CCCc1cn(S(=O)(=O)c2ccc(F)cc2)c2ccccc12)NC12CC3CC(CC(C3)C1)C2`, the half-inhibitory concentration (IC50) in the data set on Plasmodium falciparum [1] is 2.94 µM; in the data set with Plasmodium falciparum [2] it was 3.73 µM. The same compound showed a CC50 at 72 h in data set [3] of over 250 µM. The selectivity ratio in data set [4] is over 85; in data set [5] it was over 67. The Ratio IC50 in data set [6] came out at 1.26.
As for `Cc1ccc(S(=O)(=O)n2cc(CCCC(=O)NC34CC5CC(CC(C5)C3)C4)c3ccccc32)cc1`, the figures for the 50% inhibitory concentration (IC50) in the data set on Plasmodium falciparum [1] and in the data set with Plasmodium falciparum [2] were 3.99 µM and 3.95 µM, respectively. Also, in data set [3], the 50% cytotoxic concentration (CC50) at 72 h was over 250 µM. In addition, the results for the selectivity ratio in data set [4] and in data set [5] were over 62 and over 63, respectively. For the same compound, the Ratio IC50 in data set [6] came out at 0.98.
Take `Cc1ccc(NC(=O)Cn2cc(Cn3cc(CCCC(=O)NC45CC6CC(CC(C6)C4)C5)c4ccccc43)nn2)cc1C`: the values for the IC50 in the data set with Plasmodium falciparum [1] and in the data set on Plasmodium falciparum [2] were over 10 µM and 2.5 µM, respectively. The same compound had a CC50 at 72 h in data set [3] of over 250 µM. Besides, the selectivity ratio was over 25 in data set [4] and over 100 in data set [5]. For the same compound, the Ratio IC50 in data set [6] is under 0.25.
Take `O=C(Cc1c[nH]c2ccccc12)NCc1cn(CC(=O)Nc2ccc(I)cc2)nn1`: the IC50 in the data set with Plasmodium falciparum [1] was 3.83 µM; with Plasmodium falciparum [2], 2.25 µM. Moreover, in data set [3], the CC50 at 72 h was over 250 µM. For the same compound, the selectivity ratio in data set [4] was over 65; in data set [5], over 111. In addition, in data set [6], the Ratio IC50 amounted to 0.58.
For `O=C(CCCc1cn(S(=O)(=O)c2ccccc2)c2ccccc12)NC12CC3CC(CC(C3)C1)C2`, the IC50 in the data set with Plasmodium falciparum [1] is 5.04 µM; in the data set on Plasmodium falciparum [2], 2.46 µM. In addition, the CC50 at 72 h in data set [3] is over 250 µM. The selectivity ratio in data set [4] is over 49; in data set [5], over 101. In addition, in data set [6], the Ratio IC50 is 0.48.
On to `O=C(CCCc1cn(CCN2CCOCC2)c2ccccc12)NC1CCCCCC1`, for which the IC50 in the data set on Plasmodium falciparum [1] worked out at 4.15 µM; with Plasmodium falciparum [2], 7.04 µM. For the same compound, in data set [3], the cytotoxic concentration (CC50) at 72 h is over 250 µM. The selectivity ratio is over 60 in data set [4] and over 35 in data set [5]. In data set [6], the Ratio IC50 is 1.77.
`O=C(CCCc1cn(S(=O)(=O)c2cccc3ccccc23)c2ccccc12)NC1CCCCCC1`: the IC50 in the data set on Plasmodium falciparum [1] was determined as 4.67 µM; with Plasmodium falciparum [2], 3.68 µM. In data set [3], this compound came in with a 50% cytotoxic concentration (CC50) at 72 h of over 250 µM. Besides, the selectivity ratio in data set [4] was over 53; in data set [5], over 67. Further, the Ratio IC50 in data set [6] stood at 0.78.
